Test results: US7714026B2, “Pharmaceutical composition containing bakuchiol for treating woman osteoporosis” (Sinphar Pharmaceutical Co., Ltd., priority 2004, dated 2010)
Entries after “also recorded” stand apart in the source; their conditions may differ.

Test system: ovariectomized female Wistar rats (osteoporosis caused by estrogen deficiency)
Assay: Ovariectomized female rat model of osteoporosis caused by estrogen deficiency
Type: in vivo
Settings: two months; for bone volume of proximal tibia vs OVX group: FIG. 1; for apparent bone density of tibia vs OVX group: FIG. 2; for erosion surface (ES/BS) of proximal tibia (bone resorption) vs OVX group: FIG. 3
Text: The purpose of this example is to show the potency of bakuchiol in treating osteoporosis, wherein ovary of a female rat is removed to stimulate osteoporosis caused by estrogen deficiency.
The female Wistar rats of 16 weeks old (unless specified in the other experiment description) were obtained from the stock reared by the Animal breeding center, National Scientific Council in Taipei. These rats were grouped by weights matched in order to distribute the physiological response variation from rats evenly into each group. These rats were grouping as follows: • Baseline group fed with no drug added food (n=8) • Sham operation group fed with no drug added food (Sham) (n=10) • Ovariectomy operation group fed with no drug added food (OVX) (n=8) • Ovariectomy operation group fed with Drug A (5 mg/kg) added food (OVX+A) (n=9) • Ovariectomy operation group fed with Drug B (15 mg/kg) added food (OVX+B) (n=9)
Ovariectomy (removal of ovaries) operation: Ovariectomy was induced using a protocol similar to that described by Wronski et al (Wronski et al, Endocrinology, 123 (2), 681-686 ([…]))
During the experiments, the rats were housed in hanging grid cages in groups of two at 21° C. with a 12 hours dark cycle. Food (Rat-mouse diet III, adequate in 1% of calcium content and 1.2% of phosphate content, Purina, USA) was administered by paired feeding between the experimental and control groups. Pair-feeding was carried out by calculating the average amount of food intake in the Sham group. So give the same amount of food to the OVX, OVX+A (5 mg/kg), OVX+B (15 mg/kg) group animals the following day. These animals were fed with a period of two months except for the baseline group which were killed on the very day of doing ovariectomy or sham operation. Rats of OVX+A and OVX+B groups were fed with the usual food chuck but added certain amount of compound A and B in it respectively. Water was given ad libitum to all rats.
The test drug was weighted according to dose of 5 mg/kg and 15 mg/kg, and added into the usual food chuck powder and mixed with 10% starch paste. After fully mixed, these chuck powder were made into mass manually and dried by air flow oven. The food with added drug to rats was performed by single blind method.
These labeling and bone histomorphometry assessment were done based on standard procedure in bone research (Lin et al, Calcif. Tissue Int., 67, 373-377 (2000)). Specimen were prestained with Villanueva bone stain, then […] embedded in London resin. Undecalcified sections of 7 μm thick were cut using Jung-K microtome (Leica Ltd, USA) and treated with Villanueva stain for observation under light microscopy. Seven μm thick unstained sections were prepared for fluorescent microscopy and assessed with program Osteomeasure (3.0 version, Atlanta, USA). The bone volume (FIG. 1) and eroded surface parameters (FIG. 3) were obtained according to Lin et al. (Lin et al, Calcif. Tissue Int., 67, 373-377 (2000)). The experiment was performed under specific project licences from the Animal Center and IAACU, National Defense Medical Center, National Defense University, Taipei, Taiwan.
The whole tibia and femur were stripped off attached muscles and ligaments after sacrifice. An apparent bone density measurement was done based on Archimedes floating principle on an electronic balance set with densitometry frame (Danielsen et al., Calcif. Tissue Int., 52, 26-33 (1993)). The weight of bone measured in the air was marked as W-air. The weight of the same bone weighed in water will be marked as W-water. The apparent bone density was calculated as [W-air/(W-air minus W-water)](gm/cm^3) (FIG. 2, Bone apparent density of Tibia).

## C=C[C@@](C)(/C=C/c1ccc(O)cc1)CCC=C(C)C [Bakuchiol, bakuchiol]
OVX+A, 5 mg/kg in food
  bone volume of proximal tibia vs OVX group: increase in the bone volume
  apparent bone density of tibia vs OVX group: increase
OVX+A, 5 mg/kg in food, 5 mg/kg
  erosion surface (ES/BS) of proximal tibia (bone resorption) vs OVX group: inhibiting the bone resorption; also recorded: inhibition of bone erosion (bone resorption)
OVX+B, 15 mg/kg in food
  bone volume of proximal tibia vs OVX group: increase in the bone volume
  apparent bone density of tibia vs OVX group: increase
  erosion surface (ES/BS) of proximal tibia (bone resorption) vs OVX group: inhibition of bone erosion (bone resorption)
